From ChEMBL document CHEMBL3886335, “Difluorolactam compounds as EP4 receptor-selective agonists for use in the treatment of EP4-mediated diseases and conditions” (2015) come the findings set out here.

For this experiment, the target named is Prostaglandin E2 receptor EP4 subtype (Homo sapiens, UniProt P35408). Briefly: The filters are dried then counted for radioactivity in a scintillation counter (Topcount, Packard) using a scintillation cocktail (Microscint 0, Packard). The format is cell membranes.
Sequence of Prostaglandin E2 receptor EP4 subtype (P35408 whole entry): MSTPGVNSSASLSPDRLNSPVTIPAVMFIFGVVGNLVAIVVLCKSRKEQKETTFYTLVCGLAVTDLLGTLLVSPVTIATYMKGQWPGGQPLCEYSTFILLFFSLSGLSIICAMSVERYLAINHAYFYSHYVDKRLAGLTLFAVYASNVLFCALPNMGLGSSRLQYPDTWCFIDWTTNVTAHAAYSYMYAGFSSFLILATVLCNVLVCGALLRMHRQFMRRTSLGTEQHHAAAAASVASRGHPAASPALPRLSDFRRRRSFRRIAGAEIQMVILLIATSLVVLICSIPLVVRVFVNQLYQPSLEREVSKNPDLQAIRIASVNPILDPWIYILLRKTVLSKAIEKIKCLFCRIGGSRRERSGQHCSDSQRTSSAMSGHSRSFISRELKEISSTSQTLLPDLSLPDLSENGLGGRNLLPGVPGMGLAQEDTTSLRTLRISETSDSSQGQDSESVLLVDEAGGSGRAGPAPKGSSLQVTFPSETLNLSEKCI

As usually defined, the IC50 is the midpoint of a concentration-inhibition curve. The Ki is the dissociation constant of the complex between target and ligand, obtained from inhibition or displacement.

Consider `CCC#CC[C@H](C)[C@H](O)/C=C/[C@H]1CC(F)(F)C(=O)N1CCCc1ccc(C(=O)O)s1`, for which the IC50 was determined as 3.3 nM and the Ki came out at 1.2 nM.
